For assay [1], the system named is platelet aggregation. The conditions noted are these: compared with prostacyclin; cited from earlier work.
In assay [2] the test system is platelet aggregation. As to the kind of experiment: In vitro platelet aggregation inhibition (ADP-induced, PRP). The class given is cell-based, Japanese white male domestic rabbits. Particulars: Oryctolagus cuniculus, rabbit PRP, 10 μM ADP, 37° C., sample in ethanol diluted with phosphoric acid buffer pH 7.4, left at 0° C. for 4 hours, lowest concentration at which the inhibition is 50%, read-out: Anti-platelet aggregation effect IC50. The method, then:
(ii) In vitro PlateletAAggregation Inhibition Effect
The in vitro platelet aggregation inhibition effect of the sample compounds to be tested was examined by using rabbits. That is, blood was collected from the ear vein of native Japanese white male domestic rabbits weighing 2.5 to 3.5 kg. The collected blood was 9 parts by volume per 1 part by volume of a 3.8% sodium citrate solution. The blood was centrifuged at 100 r.p.m. for 10 minutes. The upper layer portion was separated as PRP (rich in platelet blood plasma). The lower layer portion was further centrifuged at 2800 r.p.m. for 10 minutes to divide it into two layers. The upper layer portion was separated as PPP (poor in platelet blood plasma). The member of the platelet was diluted with PPP to 6 to 7×10^' /μl. After the adjustment, 25 μl of the sample compound was added to 250 μl of PRP, which was preincubated at a temperature of 37° C. for 2 minutes. […]
When the activity of the sample compounds was determined, the ethanol solution was diluted with a phosphoric acid buffer (pH 7.4). The ethanol solution diluted with the buffer was left to stand at a temperature of 0° C. for 4 hours, after which the activity of the sample compounds was determined in the same manner.
The agglutination inhibition was calculated by the following formula: [formula] […]

Assay [3] deals with ulcer formation induced by indomethacin. Description: Inhibition of indomethacin-induced ulcer formation in rats (antiulcerative effect). The class given is in vivo, Wister male rats. Particulars: Rattus norvegicus, P.O., 30 minutes before oral indomethacin 20 mg/kg, ulcer length 5 hours after indomethacin. How it is done:
(i) Determination of Antiulcerative Effect
The inhibiting effect on ulcer formation induced by indomethacin was examined by using rats. Wister male rats (7 weeks old, body weight 220 g) were abstained from food for 24 hours except giving water and then subjected to experiments.
The sample compounds to be tested were dissolved in a phosphoric acid buffer (pH 7.4) containing 0.9% NaCl and the solution was orally administered to the rats. 30 minutes after the administration, indomethacin was orally administered to the rats at a dose of 20 mg/kg. 5 hours after the administration of the indomethacin, the rats were killed and the ulcer formation in the stomach was examined by determining the length of the ulcer formation portion under a stereomicroscope. From this measurement, the inhibition of ulcer formation by the sample compounds was calculated to determine the ED50 values.

As a reminder, the IC50 is the concentration that inhibits the measured activity by half. As a reminder, the ED50 is the dose that gives a 50% effect, or the effect in half of the subjects.

Turning to `CCCCC[C@H](O)/C=C/[C@H]1[C@H](O)CC(=O)[C@@H]1CC(=O)CCCCC(=O)O` [6-oxoprostaglandin E1], the “platelet aggregation inhibition effect” value in assay [1] was “as strong as those of prostacyclin”.

Turning to `CCCCC(C)(O)C/C=C/[C@H]1[C@H](O)CC(=O)[C@@H]1CC(CCCCC(=O)OC)[N+](=O)[O-]` (stereo partly drawn), in assay [2], the IC50 was > 100 µg/mL. In addition, the ED50 in assay [3] was found to be 0.022 mg/kg.

(Values after patent publication US4797506A, “6-substituted prostaglandins E1 and process for producing same” (Teijin Limited, priority 1984, dated 1989).)
